Data on four compounds can be found in PMC12348585, “Semi-Synthesis, Anti-Leukemia Activity, and Docking Study of Derivatives from 3α,24-Dihydroxylup-20(29)-en-28-Oic Acid” (Molecules, 2025).

The structures appear in SMILES notation.

In series [1] the test system is leukemia cell lines (CCRF-CEM, REH, JURKAT, MOLT-4, THP-1). The experiment in a line: Cell viability assay, all leukemia cell lines tested (summary statements). The class given is cell-based. The conditions noted are these: for IC50: read-out: IC50 across all leukemia cell lines tested. As to the method:
(§1) Cell lines were cultured in RPMI 1640 medium (Roswell Park Memorial Institute medium) supplemented with 10% fetal bovine serum (FBS) and 1% penicillin–streptomycin. Cultures were maintained at 37 °C in a humidified incubator with 5% CO2. All biological evaluations were performed using cell between passages 3 and 4. All compounds were dissolved in dimethyl sulfoxide (DMSO) at a concentration of 20 mg/mL. In all assays, culture medium containing 0.1% DMSO was used as the negative control, while dasatinib was included as the positive control. Normal mononuclear cells (MNCs) were included as the normal cell control. All experiments were performed in triplicate. Leukemic cell lines and normal mononuclear cells (MNCs) were used to evaluate the cytotoxicity of the compounds. Leukemic cells (1 × 10^5 cells/well) were cultured in 96-well plates and treated with increasing concentrations of compounds (0.02, 0.2, 2.0, and 20 µM) for 48 h. After incubation, both leukemic cells and MNCs were collected, washed with phosphate-buffered saline (PBS), and stained with DAPI (500 ng/mL) for 15 min in darkness, following the manufacturer’s instructions. Fluorescence was analyzed using a FACSVerse flow cytometer (BD Bioscience, San Jose, CA, USA). Flow cytometry data were analyzed using FlowJo^TM software (version 10.9). […] All experiments were performed in triplicate, and results were expressed as means ± standard errors of the means (SEMs). Statical analysis was performed using one-way analysis of variance (ANOVA), followed by Dunnett’s post hoc test to compare treated groups against the control.

Series [2] is described as follows: Cell viability assay in normal mononuclear cells. The class given is cell-based, human. The note with it: human. As to the method: (§2) All compounds were dissolved in dimethyl sulfoxide (DMSO) at a concentration of 20 mg/mL. In all assays, culture medium containing 0.1% DMSO was used as the negative control, while dasatinib was included as the positive control. Normal mononuclear cells (MNCs) were included as the normal cell control. All experiments were performed in triplicate. Normal mononuclear cells (MNCs) were isolated from peripheral blood mononuclear cells obtained from healthy human donors. Cell collection was conducted in accordance with institutional guidelines, including written informed consent from each participant. All procedures were approved by Ethics and Scientific Committee of the Mexican Institute of Social Security (IMSS, ethical approval number: CNIC R-2021-785-025). The MNCs were purified using FicollPaque Plus (Pharmacia Biotech, Uppsala, Sweden) by centrifugation at 400× g for 30 min at room temperature, following the manufacturer’s protocol. The resulting cells were resuspended in RPMI-1640 medium supplemented with 10% fetal bovine serum (FBS) and counted using a hemocytometer after trypan blue staining, confirming a viability of 95% [56]. […] After incubation, both leukemic cells and MNCs were collected, washed with phosphate-buffered saline (PBS), and stained with DAPI (500 ng/mL) for 15 min in darkness, following the manufacturer’s instructions. Fluorescence was analyzed using a FACSVerse flow cytometer (BD Bioscience, San Jose, CA, USA). Flow cytometry data were analyzed using FlowJo^TM software (version 10.9). […] All experiments were performed in triplicate, and results were expressed as means ± standard errors of the means (SEMs). Statical analysis was performed using one-way analysis of variance (ANOVA), followed by Dunnett’s post hoc test to compare treated groups against the control.

For the next series, the system named is REH. Description: Cell viability assay (DAPI, flow cytometry), REH. The series is classed as cell-based. The note with it: for IC50: Homo sapiens, REH, 48 h, mean ± SEM, N/A: not active; for SI: selectivity index, REH: ratio of IC50 in the MNC line over IC50 in the leukemia cell line. As to the method: as §1
In series [3] the test system is peripheral blood mononuclear cells (MNCs). The experiment in a line: Cell viability assay in normal mononuclear cells. The series is classed as cell-based, human. As to the method: as §2
The next series relates to MOLT-4. The experiment in a line: Cell viability assay (DAPI, flow cytometry), MOLT-4. The class given is cell-based. The conditions noted are these: for IC50: Homo sapiens, MOLT-4, 48 h, mean ± SEM, N/A: not active. As to the method: as §1
For another series, the system named is THP-1. Description: Cell viability assay (DAPI, flow cytometry), THP-1. The class given is cell-based. The conditions noted are these: for IC50: Homo sapiens, THP-1, 48 h, mean ± SEM, N/A: not active; for SI: selectivity index, THP-1: ratio of IC50 in the MNC line over IC50 in the leukemia cell line. As to the method: as §1
The next series relates to JURKAT. The experiment in a line: Cell viability assay (DAPI, flow cytometry), JURKAT. The series is classed as cell-based. The note with it: for IC50: Homo sapiens, Jurkat, 48 h, mean ± SEM, N/A: not active; for SI: selectivity index, JURKAT: ratio of IC50 in the MNC line over IC50 in the leukemia cell line. As to the method:
as §1

Another series has as its system CCRF-CEM. The experiment in a line: Cell viability assay (DAPI, flow cytometry), CCRF-CEM. The class given is cell-based. The note with it: for IC50: Homo sapiens, CCRF-CEM, 48 h, mean ± SEM, N/A: not active; for SI: selectivity index, CCRF-CEM: ratio of IC50 in the MNC line over IC50 in the leukemia cell line. As to the method:
as §1

For a further series, the system named is MOLT-4 cell line. The experiment in a line: Apoptosis assay (annexin V-FITC/DAPI flow cytometry), MOLT-4. The series is classed as cell-based. As to the method: (§3) Since compound T1c was the only derivative that decreased the cell viability of leukemic cells (IC50 ≤ 20 µΜ), without affecting viability in normal MNC cells, its mode of action to exert cytotoxic effects was evaluated by flow cytometry techniques, determining the apoptotic effect at 48 h, using ½ IC50 and IC50 concentrations obtained in the viability assay in the different leukemia cell lines. Dasatinib at different concentrations was included as a positive control. Cell death was quantified by dual staining with annexin V-FITC and DAPI. Annexin V binds to externalized phosphatidylserine residues during early and late apoptosis, whereas DAPI penetrates membrane-compromised cells, distinguishing between late apoptotic and necrotic cells. The total percentage of apoptotic cells was calculated as the sum of early and late apoptotic populations. The results were normalized to 100% with respect to the negative control.
(§4) Apoptosis induction was evaluated by flow cytometry. Cells (1 × 10^5 cells/well) were cultured in 96-well plates and exposed to the compounds at two concentrations (½ and 1 × IC50). After 48 h of treatment, the cells were washed with phosphate-buffered saline (PBS) and stained with annexin V-FITC (BD Bioscience) for 15 min in the dark. Following a second PBS wash, the cells were stained with DAPI (500 ng/mL) for 15 min in darkness. The stained samples were subsequently analyzed on a FACSVerse cytometer (BD Bioscience, San Jose, CA, USA).

The next series relates to THP-1 cell line. The experiment in a line: Apoptosis assay (annexin V-FITC/DAPI flow cytometry), THP-1. The class given is cell-based. As to the method:
as §3, §4

For another series, the system named is JURKAT cell line. Description: Apoptosis assay (annexin V-FITC/DAPI flow cytometry), JURKAT. The class given is cell-based. As to the method:
as §3, §4

A further series deals with CCRF-CEM cell line. Description: Apoptosis assay (annexin V-FITC/DAPI flow cytometry), CCRF-CEM. The class given is cell-based. As to the method:
as §3, §4

The mark [4] stands for this setting: 48 h, summary over CCRF-CEM, REH, JURKAT, MOLT-4, THP-1.

Consider `C=C(C)C1CCC2(C(=O)O)CCC3(C)C(CCC4C5(C)CCC(O)C(C)(CO)C5CCC43C)C12` (stereo not drawn) [Compound T1, 3α,24-dihydroxylup-20(29)-en-28-oic acid], for which the “IC50 across all leukemia cell lines tested” value in series [1] (setting [4]) was “no activity”. Moreover, the IC50 at 48 h in [2] is more than 200 µM.

For the compound `C=C(C)C1CCC2(C(=O)O)CCC3(C)C(CCC4C5(C)CCC(OC)C(C)(CO)C5CCC43C)C12` (stereo not drawn) [Compound T1a, 3α-methoxy-24-hydroxylup-20(29)-en-28-oic acid], the IC50 with REH was more than 20 µM. Further, the “IC50 MNCs” value in series [3] is on record as “no activity”.

With `C=C(C=O)C1CCC2(C(=O)O)CCC3(C)C(CCC4C5(C)CCC(OC)C(C)(CO)C5CCC43C)C12` (stereo not drawn) [Compound T1b, 3α-methoxy-24-hydroxy-30-oxolup-20(29)-en-28-oic acid], the 50% inhibitory concentration (IC50) was 4.05 to 15 µM in series [1] (setting [4]); 9.46 ± 3.2 µM in the series with REH; 4.05 ± 0.1 µM in the series on MOLT-4; 11.04 ± 0.1 µM with THP-1; 15 ± 1.6 µM in the series with JURKAT; 6.87 ± 0.6 µM in the series with CCRF-CEM. Moreover, the “SI: selectivity index, REH” value with REH came to 1.13. The “SI: selectivity index, MOLT-4” value in the series on MOLT-4 (ratio of IC50 in the MNC line over IC50 in the leukemia cell line) is recorded as 2.66. Further, in the series on THP-1, the “SI: selectivity index, THP-1” value is reported as 0.97. In addition, the “SI: selectivity index, JURKAT” value in the series with JURKAT is 0.72. Besides, in the series on CCRF-CEM, the “SI: selectivity index, CCRF-CEM” value is listed as 1.59. In addition, the IC50 at 48 h in series [2] was 10.8 ± 1.3 µM.

`C=C(C=O)C1CCC2(C(=O)O)CCC3(C)C(CCC4C5(C)CCC(O)C(C)(CO)C5CCC43C)C12` (stereo not drawn) [Compound T1c, 3α,24-dihydroxy-30-oxolup-20(29)-en-28-oic acid]: the IC50 in series [1] (setting [4]) was 12.9 to 24.9 µM; in the series with REH, more than 20 µM; with MOLT-4 it was 13.9 ± 0.7 µM; in the series with THP-1 it was 12.9 ± 0.1 µM; with JURKAT, 18.7 ± 1.4 µM; in the series with CCRF-CEM, 17.8 ± 1 µM. Moreover, in [1] (summary statement), the “SI (selectivity against leukemia cell lines vs MNCs)” value is listed as more than 10. For the same compound, in the series with REH, the “SI: selectivity index, REH” value worked out at 53.55. The “apoptosis rate (early + late)” value came to 94.58 ± 0.45% in the series on MOLT-4 cell line (MOLT-4, IC50, 48 h); 69.91 ± 2.17% in the series with MOLT-4 cell line (MOLT-4, ½ IC50, 48 h); 52.23 ± 1.69% with THP-1 cell line (THP-1, IC50, 48 h); 29.40 ± 2.66% in the series on THP-1 cell line (THP-1, ½ IC50, 48 h); 96.37 ± 0.49% in the series on JURKAT cell line (IC50, 48 h); 67.14 ± 2.18% in the series with JURKAT cell line (½ IC50, 48 h). For the same compound, the “apoptosis rate (early + late)” value was 97.13 ± 0.36% in the series on CCRF-CEM cell line (IC50, 48 h) and 62.40 ± 1.57% with CCRF-CEM cell line (½ IC50, 48 h). Moreover, the early apoptotic cells was 30.12% with MOLT-4 cell line (MOLT-4, IC50, 48 h); 41.15% with MOLT-4 cell line (MOLT-4, ½ IC50, 48 h); 22.84% with THP-1 cell line (THP-1, IC50, 48 h); 14.50% in the series with THP-1 cell line (THP-1, ½ IC50, 48 h); 47.61% in the series with JURKAT cell line (IC50, 48 h); 30.60% in the series with JURKAT cell line (½ IC50, 48 h). Also, the early apoptotic cells in the series with CCRF-CEM cell line (IC50, 48 h) was found to be 16.92%; with CCRF-CEM cell line (½ IC50, 48 h) it was 16.98%. In addition, the late apoptotic cells in the series on MOLT-4 cell line (MOLT-4, IC50, 48 h) came out at 64.46%; in the series with MOLT-4 cell line (MOLT-4, ½ IC50, 48 h), 28.76%; with THP-1 cell line (THP-1, IC50, 48 h), 29.39%; in the series with THP-1 cell line (THP-1, ½ IC50, 48 h), 14.90%; in the series on JURKAT cell line (IC50, 48 h) it was 48.72%; with JURKAT cell line (½ IC50, 48 h), 36.55%. For the same compound, the late apoptotic cells in the series on CCRF-CEM cell line (IC50, 48 h) was 80.21%; in the series on CCRF-CEM cell line (½ IC50, 48 h), 45.42%. Besides, the “SI: selectivity index, THP-1” value in the series on THP-1 came to 103.46. Moreover, the “SI: selectivity index, JURKAT” value in the series with JURKAT stood at 71.46. The “SI: selectivity index, CCRF-CEM” value in the series on CCRF-CEM is 75.02. The IC50 at 48 h in series [2] was more than 200 µM.
